Source: patent US9422312B2, “Azabenzimidazole derivatives” (Boehringer Ingelheim International GmbH, priority 2014, dated 2016)

Target: Activated AMPK complex 1 (containing alpha1beta1gamma1) (Homo sapiens (Human), UniProt Q13131+Q9Y478)
Assay: in vitro AMPK activation assay (ADP-Glo Kinase Assay)
Assay type: biochemical
Details: 1 μM peptide substrate, 30 μM ATP, 60 min, room temperature, luminescence
From the text: Activated AMPK complex 1 (containing alpha1beta1gamma1) was obtained from baculovirus expression system. The gene encoding AMPK alpha1 was cloned into the pACG2T vector (BD Biosciences) to obtain a N-terminal Glutathion S transferase (GST)-fusion protein. The genes encoding AMPK beta 1 and gamma1 were cloned into the p2Bac dual multiple cloning site vector (Invitrogen) with beta1 under the control of the p10 promoter and gamma1 under the control of the PH promoter. The transfer vectors containing AMPK were co-transfected individually with AcPNV BacMagic-3 DNA (EMD Millipore) in Sf9 cells and the recombinant baculoviruses were harvested after 5 days, followed by 3 rounds of amplification of the virus stock in Sf9 cells. AMPK (alpha1beta1gamma1) was expressed in High Five 5 cells by co-infection of recombinant alpha1 virus and recombinant beta1/gamma1 virus for 72 h at 27° C. Cells were harvested by centrifugation and lysed by 3 freeze/thaw cycles in PBS with 10% glycerol and protease inhibitor cocktail (Roche). After centrifugation AMPK a1b1g1 in the supernatant was captured by immobilized glutathione (GE Healthcare), impurities were washed away with PBS and AMPK alpha1beta1gamma1 was eluted with PBS containing 20 mM reduced gluthathione. The protein buffer was then exchanged to PBS with 10% glycerol and protein concentration was determined by UV absorbance.
The white 384-well Optiplates (cat. no. 6007299) were purchased from PerkinElmer. The V9101 ADP-Glo Kinase Assay and ultra pure ATP (V915A) was purchased from Promega. The substrate for AMPK (NH2-HMRSAMSGLHLVKRR_CONH2) was purchased from Upstate (12-355).
Compounds were tested in either serial dilutions or single dose concentrations. The serial compound dilutions were prepared in 100% DMSO automatically. The final DMSO concentration in the assay was 0.1%.
The Compound Stock Solutions were 10 mM in 100% DMSO. The compounds were solubilised at room temperature.
In the 384-well plates 1.25 ul of test compound in assay buffer was mixed with 1.25 ul of AMPK and 1.25 μl of the peptide (final concentration of 1 μM) and 1.25 μl of ATP (final concentration of 30 μM), both dissolved in assay buffer. This step was followed by an incubation time of 60 min. Then 5 μl of ADP Glo Reagent was added. This was followed by 40 min of incubation. Then 10 μl of Kinase Detection Reagent was admixed. The plates were sealed and after an incubation period of 30 min, the luminescence signal was measured in an Envision reader. All incubation steps were accomplished at room temperature.
Each assay microtiter plate contained wells with vehicle controls instead of compound (0.1% DMSO in water) as reference for the low signal (100% CTL, low signal), and wells with serial dilutions of AMP (final 30 μM) as reference for high signals.
The luminescence signal generated was proportional to the ADP concentration produced and was correlated with AMPK activity. The analysis of the data was performed by the calculation of the percentage of ATP consumption of AMPK in the presence of the test compound compared to the consumption of ATP in the presence of AMPK without compound. (RLU(sample)/RLU(low control))*100[RLU=relative luminescence units]
An activator of the AMPK enzyme gave values above 100% CTL.
EC50 values based on dose response curves are calculated with the XIFIT software using the 4 Parameter Logistic Model or Sigmoidal Dose-Response Model.

Sequence of Activated AMPK complex 1 (containing alpha1beta1gamma1) (Q13131 whole entry): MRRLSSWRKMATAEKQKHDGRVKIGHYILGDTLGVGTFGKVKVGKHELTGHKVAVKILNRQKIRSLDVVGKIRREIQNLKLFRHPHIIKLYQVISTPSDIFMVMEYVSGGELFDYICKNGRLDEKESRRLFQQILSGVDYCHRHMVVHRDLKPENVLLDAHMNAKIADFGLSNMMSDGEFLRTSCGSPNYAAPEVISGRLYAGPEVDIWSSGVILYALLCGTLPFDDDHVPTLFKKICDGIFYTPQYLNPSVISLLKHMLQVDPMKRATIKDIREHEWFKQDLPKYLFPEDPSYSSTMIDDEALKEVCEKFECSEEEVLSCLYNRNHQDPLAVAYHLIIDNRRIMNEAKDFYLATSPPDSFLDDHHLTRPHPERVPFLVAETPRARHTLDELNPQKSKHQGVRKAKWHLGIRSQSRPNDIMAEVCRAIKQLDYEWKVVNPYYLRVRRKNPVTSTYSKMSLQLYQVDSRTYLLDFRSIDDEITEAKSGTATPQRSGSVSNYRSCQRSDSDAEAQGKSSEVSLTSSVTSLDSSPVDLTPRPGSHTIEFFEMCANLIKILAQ
Sequence of Activated AMPK complex 1 (containing alpha1beta1gamma1) (Q9Y478 whole entry): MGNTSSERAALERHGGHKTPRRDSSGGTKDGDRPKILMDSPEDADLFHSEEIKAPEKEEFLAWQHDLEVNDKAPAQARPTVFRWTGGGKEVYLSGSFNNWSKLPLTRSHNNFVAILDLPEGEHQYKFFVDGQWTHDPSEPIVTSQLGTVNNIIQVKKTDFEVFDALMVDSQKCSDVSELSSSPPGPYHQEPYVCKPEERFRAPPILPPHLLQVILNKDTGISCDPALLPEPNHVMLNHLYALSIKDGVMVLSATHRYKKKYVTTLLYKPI
Sequence of Activated AMPK complex 1 (containing alpha1beta1gamma1) (P54619 whole entry partner): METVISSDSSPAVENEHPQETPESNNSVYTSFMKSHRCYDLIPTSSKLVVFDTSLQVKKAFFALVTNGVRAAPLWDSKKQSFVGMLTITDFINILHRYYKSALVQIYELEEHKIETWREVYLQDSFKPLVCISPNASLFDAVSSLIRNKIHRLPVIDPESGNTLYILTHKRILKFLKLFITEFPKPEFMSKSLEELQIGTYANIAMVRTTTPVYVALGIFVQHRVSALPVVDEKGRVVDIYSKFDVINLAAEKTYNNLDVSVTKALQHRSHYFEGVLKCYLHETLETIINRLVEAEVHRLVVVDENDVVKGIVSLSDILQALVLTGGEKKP

SMILES | EC50 [nM]
CN(C)S(C)(=O)=Nc1ccc(-c2ccc(-c3nc4[nH]c(O[C@@H]5CO[C@H]6[C@@H]5OC[C@H]6O)nc4cc3Cl)cc2)cc1 (stereo partly drawn) [Example 1, N′-{4-[4-(2-{[(3R,3aR,6R,6aR)-6-Hydroxy-hexahydrofuro[3,2-b]furan-3-yl]oxy}-6-chloro-3H-imidazo[4,5-b]pyridin-5-yl)phenyl]phenyl}-N,N-dimethyl-methanesulfonimidamide] | 26
CNS(C)(=O)=Nc1ccc(-c2ccc(-c3nc4[nH]c(O[C@@H]5CO[C@H]6[C@@H]5OC[C@H]6O)nc4cc3Cl)cc2)cc1 (stereo partly drawn) [Example 2, N′-{4-[4-(2-{[(3R,3aR,6R,6aR)-6-Hydroxy-hexahydrofuro[3,2-b]furan-3-yl]oxy}-6-chloro-3H-imidazo[4,5-b]pyridin-5-yl)phenyl]phenyl}-N-methyl-methanesulfonimidamide] | 20
CC(C)NS(C)(=O)=Nc1ccc(-c2ccc(-c3nc4[nH]c(O[C@@H]5CO[C@H]6[C@@H]5OC[C@H]6O)nc4cc3Cl)cc2)cc1 (stereo partly drawn) [Example 3, N′-{4-[4-(2-{[(3R,3aR,6R,6aR)-6-Hydroxy-hexahydrofuro[3,2-b]furan-3-yl]oxy}-6-chloro-3H-imidazo[4,5-b]pyridin-5-yl)phenyl]phenyl}-N-(propan-2-yl)-methanesulfonimidamide] | 94
CCN(C)S(C)(=O)=Nc1ccc(-c2ccc(-c3nc4[nH]c(O[C@@H]5CO[C@H]6[C@@H]5OC[C@H]6O)nc4cc3Cl)cc2)cc1 (stereo partly drawn) [Example 4, N′-{4-[4-(2-{[(3R,3aR,6R,6aR)-6-Hydroxy-hexahydrofuro[3,2-b]furan-3-yl]oxy}-6-chloro-3H-imidazo[4,5-b]pyridin-5-yl)phenyl]phenyl}-N-ethyl-N-methyl-methanesulfonimidamide] | 52
CS(=O)(=Nc1ccc(-c2ccc(-c3nc4[nH]c(O[C@@H]5CO[C@H]6[C@@H]5OC[C@H]6O)nc4cc3Cl)cc2)cc1)N1CCC1 (stereo partly shown) [Example 5] | 15
CS(=O)(=Nc1ccc(-c2ccc(-c3nc4[nH]c(O[C@@H]5CO[C@H]6[C@@H]5OC[C@H]6O)nc4cc3Cl)cc2)cc1)N1CCCC1 (stereo partly drawn) [Example 6, (3R,3aR,6R,6aR)-6-({6-Chloro-5-[4-(4-{[methyl(oxo)pyrrolidin-1-yl-λ^6-sulfanylidene]-amino}phenyl)phenyl]-3H-imidazo[4,5-b]pyridin-2-yl}oxy)hexahydrofuro[3,2-b]furan-3-ol] | 54
CS(=O)(=Nc1ccc(-c2ccc(-c3nc4[nH]c(O[C@@H]5CO[C@H]6[C@@H]5OC[C@H]6O)nc4cc3Cl)cc2)cc1)NC1CCC1 (stereo partly drawn) [Example 7, N-{4-[4-(2-{[(3R,3aR,6R,6aR)-6-Hydroxy-hexahydrofuro[3,2-b]furan-3-yl]oxy}-6-chloro-3H-imidazo[4,5-b]pyridin-5-yl)phenyl]phenyl}-N′-cyclobutyl-methanesulfonimidamide] | 37
CCNS(C)(=O)=Nc1ccc(-c2ccc(-c3nc4[nH]c(O[C@@H]5CO[C@H]6[C@@H]5OC[C@H]6O)nc4cc3Cl)cc2)cc1 (stereo partly drawn) [Example 8, N-{4-[4-(2-{[(3R,3aR,6R,6aR)-6-Hydroxy-hexahydrofuro[3,2-b]furan-3-yl]oxy}-6-chloro-3H-imidazo[4,5-b]pyridin-5-yl)phenyl]phenyl}-N′-ethyl-methanesulfonimidamide] | 61
CS(=O)(=Nc1ccc(-c2ccc(-c3nc4[nH]c(O[C@@H]5CO[C@H]6[C@@H]5OC[C@H]6O)nc4cc3Cl)cc2)cc1)NC1CC1 (stereo partly drawn) [Example 9, N-{4-[4-(2-{[(3R,3aR,6R,6aR)-6-Hydroxy-hexahydrofuro[3,2-b]furan-3-yl]oxy}-6-chloro-3H-imidazo[4,5-b]pyridin-5-yl)phenyl]phenyl}-N′-cyclopropyl-methanesulfonimidamide] | 89
CN(C)S(C)(=O)=Nc1ccc(-c2ccc(-c3nc4[nH]c(O[C@@H]5CO[C@H]6[C@@H]5OC[C@H]6O)nc4cc3Cl)cc2)nc1 (stereo partly drawn) [Example 10, N′-{6-[4-(2-{[(3R,3aR,6R,6aR)-6-Hydroxy-hexahydrofuro[3,2-b]furan-3-yl]oxy}-6-chloro-3H-imidazo[4,5-b]pyridin-5-yl)phenyl]pyridin-3-yl}-N,N-dimethyl-methanesulfonimidamide] | 17
CNS(C)(=O)=Nc1ccc(-c2ccc(-c3nc4[nH]c(O[C@@H]5CO[C@H]6[C@@H]5OC[C@H]6O)nc4cc3Cl)cc2)nc1 (stereo partly drawn) [Example 11, N′-{6-[4-(2-{[(3R,3aR,6R,6aR)-6-Hydroxy-hexahydrofuro[3,2-b]furan-3-yl]oxy}-6-chloro-3H-imidazo[4,5-b]pyridin-5-yl)phenyl]pyridin-3-yl}-N-methyl-methanesulfonimidamide] | 62
CN(C)S(=N)(=O)c1ccc(-c2ccc(-c3nc4[nH]c(O[C@@H]5CO[C@H]6[C@@H]5OC[C@H]6O)nc4cc3Cl)cc2)cc1 (stereo partly drawn) [Example 12, 4-[4-(2-{[(3R,3aR,6R,6aR)-6-Hydroxy-hexahydrofuro[3,2-b]furan-3-yl]oxy}-6-chloro-3H-imidazo[4,5-b]pyridin-5-yl)phenyl]-N,N-dimethyl-benzenesulfonimidamide] | 2
CN(C)S(C)(=O)=Nc1cnc(-c2ccc(-c3nc4[nH]c(O[C@@H]5CO[C@H]6[C@@H]5OC[C@H]6O)nc4cc3Cl)cc2)nc1 (stereo partly drawn) [Example 13, N′-{2-[4-(2-{[(3R,3aR,6R,6aR)-6-hydroxy-hexahydrofuro[3,2-b]furan-3-yl]oxy}-6-chloro-3H-imidazo[4,5-b]pyridin-5-yl)phenyl]pyrimidin-5-yl}-N,N-dimethyl-methanesulfonimidamide] | 30
N=S1(=O)CCCN1Cc1ccc(-c2ccc(-c3nc4[nH]c(O[C@@H]5CO[C@H]6[C@@H]5OC[C@H]6O)nc4cc3Cl)cc2)cc1 (stereo partly drawn) [Example 14, 2-({4-[4-(2-{[(3R,3aR,6R,6aR)-6-Hydroxy-hexahydrofuro[3,2-b]furan-3-yl]oxy}-6-chloro-3H-imidazo[4,5-b]pyridin-5-yl)phenyl]phenyl}methyl)-1-imino-1λ^6,2-thiazolidin-1-one] | 52
CN=S(=O)(c1ccc(-c2ccc(-c3nc4[nH]c(O[C@@H]5CO[C@H]6[C@@H]5OC[C@H]6O)nc4cc3Cl)cc2)cc1)N(C)C (stereo partly drawn) [Example 15, 4-[4-(2-{[(3R,3aR,6R,6aR)-6-Hydroxy-hexahydrofuro[3,2-b]furan-3-yl]oxy}-6-chloro-3H-imidazo[4,5-b]pyridin-5-yl)phenyl]-N,N,N′-trimethyl-benzenesulfonimidamide] | 90
CS(=O)(=Nc1cnc(-c2ccc(-c3nc4[nH]c(O[C@@H]5CO[C@H]6[C@@H]5OC[C@H]6O)nc4cc3Cl)cc2)nc1)N1CCCC1 (stereo partly drawn) [Example 16, (3R,3aR,6R,6aR)-6-({6-Chloro-5-[4-(5-{[methyl(oxo)pyrrolidin-1-yl-λ^6-sulfanylidene]-amino}pyrimidin-2-yl)phenyl]-3H-imidazo[4,5-b]pyridin-2-yl}oxy)-hexahydrofuro[3,2-b]furan-3-ol] | 48
N#CN=S1(=O)CCCN1c1ccc(-c2ccc(-c3nc4[nH]c(O[C@@H]5CO[C@H]6[C@@H]5OC[C@H]6O)nc4cc3Cl)cc2)cc1 (stereo partly drawn) [Example 17, [(2-{4-[4-(2-{[(3R,3aR,6R,6aR)-6-Hydroxy-hexahydrofuro[3,2-b]furan-3-yl]oxy}-6-chloro-3H-imidazo[4,5-b]pyridin-5-yl)phenyl]phenyl}-1-oxo-1λ^6,2-thiazolidin-1-ylidene)amino]carbonitrile] | 202
CN=S(=O)(NC)c1ccc(-c2ccc(-c3nc4[nH]c(O[C@@H]5CO[C@H]6[C@@H]5OC[C@H]6O)nc4cc3Cl)cc2)cc1 (stereo partly drawn) [Example 18, 4-[4-(2-{[(3R,3aR,6R,6aR)-6-hydroxy-hexahydrofuro[3,2-b]furan-3-yl]oxy}-6-chloro-3H-imidazo[4,5-b]pyridin-5-yl)phenyl]-N,N′-dimethyl-benzenesulfonimidamide] | 67
CS(=O)(=NCc1ccc(-c2ccc(-c3nc4[nH]c(O[C@@H]5CO[C@H]6[C@@H]5OC[C@H]6O)nc4cc3Cl)cc2)cc1)N1CCCC1 (stereo partly shown) [Example 19] | 138
